Source: paper PMC10545747, “Development of cyclopeptide inhibitors of cGAS targeting protein-DNA interaction and phase separation” (Nature Communications, 2023)
“And” between values parts separate entries of the source, which are not always exact repeats. Identical values can stand only once. “Also recorded” adds a separate entry of the source. Square brackets hold non-standard residues; d marks the D form. Peptide text beside a SMILES is read from it.

Tests used:
[1] = test system: HSV-1-infected THP1 cells; assay: qPCR of IFNB1/CXCL10/IL6 mRNA in THP1 cells stimulated by HSV-1 infection; assay type: cell-based, human
[2] = test system: THP1 cells stimulated with poly (I: C) (TLR3 and RIG-I/MDA-5 pathways); assay: qPCR of IFNB1 mRNA in THP1 cells stimulated by poly (I: C); assay type: cell-based, human
From the text: We next evaluated the inhibitory effect of XQ2 against cGAS in murine fibroblast L929 cells, macrophage RAW264.7 cells and primary bone marrow-derived macrophages (BMDMs) from C57BL/6 mice.
(§1) The indicated cells were stimulated with either ISD (Sangon Biotech), HSV-1 (Provided by Dr. Zhengfan Jiang), HSV60mer (Sangon Biotech), SATE-cddA[70], 2’3’-cGAMP (Invivogen, Cat# tlrl-nacga23-1), ADU-S100 (MedChemExpress, Cat# HY-12885A) or Poly(I:C) (Invivogen, Cat# tlrl-pic) after XQ2 or XQ2B treatment. Total RNA was isolated from indicated cells that incubated with the drugs for indicated time or mice tissues by using NucleoZOL reagent (MACHEREY-NAGEL) according to the manufacturer’s instructions. The quantifications of mRNA levels were carried out by real-time PCR using a PerfectStart® Uni RT&qPCR Kit (TransGen Biotech) on the QuantStudio 5 qPCR machine (Applied Biosystems). Samples were carried out in triplicate and the target CT values were normalized to GAPDH CT values. Primers of qPCR used in this study can be found in Supplementary Table S2.

[3] = test system: primary human PBMCs; assay: qPCR of IFNB1 and IL6 mRNA in ISD-stimulated PBMCs; assay type: cell-based; set-up: key to IFNB1 mRNA, qPCR, Fig. 2c / IL6 mRNA, qPCR, Fig. 2c / IFNB1 mRNA (Fig. S7f) / IL6 mRNA (Fig. S7f): relative mRNA level, target CT normalized to GAPDH CT; details: 10 μM
Description: as §1

[4] = Cell viability (CCK-8), cytotoxicity; details: human, THP1 cells
Description: (§2) Cell viability was measured by cell counting kit-8 (TargetMol) according to the manufacturer’s instructions.
(§3) Supplementary Fig. 2. […]
(§4) (e-g) THP1 cells (e), L929 cells (f) and RAW264.7 cells (g) were exposed to the indicated doses of XQ2 for 48h, the cell viability was measured by CCK8 assay. Data are representative of three independent experiments in (a-g). (Data are presented as mean ± SD, n = 3 independent samples in (a-g), **p < 0.01, ***p < 0.001, ****p < 0.0001 using one-way ANOVA with Dunnett’s post hoc test).
(§5) Source data are provided as a Source Data file. […]
(§6) Relative viability(%) XQ2B
(§7) Supplementary Fig. 7. […] (a) THP1 cells were exposed to the indicated doses of XQ2 or XQ2B for 48h. The cell viability was measured by CCK8 assay. […]
(§8) Data are representative of three independent experiments with similar results in (e), or three independent experiments in (a -d, f, g) . (Data are presented as mean ± SD, n = 3 independent samples in (a-d, f, g), ns, not significant, **p < 0.01, ***p < 0.001, ****p < 0.0001 using one-way ANOV A with Dunnett’s post hoc test). Source data are provided as a Source Data file.

[5] = test system: THP1 cells; assay: Cell viability (CCK-8), cytotoxicity; details: for Cell viability (Fig. S2e): THP1 (48h)
Description: as §2, §3, §4, §5, §6, §7, §8

[6] = test system: Jurkat cells
Description: as §2
Supplementary Fig. 3. […] (a) L929 cells were pretreated for
4 h with DMSO or the indicated doses of XQ2, followed by stimulation with dsDNA for 4 h, and then cell lysates were
(b) Jurkat cells were exposed to the indicated doses of XQ2, and then stimulated with
Data are representative of three independent experiments in (a, b). (Data are presented as mean ± SD, n = 3 independent
provided as a Source Data file.
(1 picture or pasted object on this page, not shown here)

[7] = test system: HSV-1 in THP1 cells; assay: HSV-1(UL5) mRNA by qPCR (virus infection of cells); assay type: cell-based, herpes simplex virus-1; set-up: key to HSV-1(UL5) mRNA, qPCR, Fig. 5d / HSV-1(UL5) mRNA (Fig. S8e): relative mRNA level, target CT normalized to GAPDH CT; details: for HSV-1(UL5) mRNA, qPCR, Fig. 5d: XQ2 10 μM
Description: as §1

## CC(C)C[C@@H]1NC(=O)[C@H](CCCNC(=N)N)NC(=O)[C@H](C(C)C)NC(=O)[C@@H]2CCCN2C(=O)[C@@H](Cc2ccccc2)NC(=O)[C@H](CC(C)C)NC(=O)[C@H](CCCNC(=N)N)NC(=O)[C@H](C(C)C)NC(=O)[C@H](C)NC(=O)[C@@H](Cc2ccccc2)NC1=O [XQ2, Cyclo (LfAVRLfPVR)] (cyclo(L[dF]AVRL[dF]PVR))
[1]; HSV-1, XQ2 0.31 μM
  CXCL10 mRNA (Fig. S2b): 13697.8 and 18057.7 and 19972.6
  IFNB1 mRNA (Fig. S2b): 103.029 and 97.656 and 104.314
  IL6 mRNA (Fig. S2b): 94.9854 and 106.129 and 109.338
[1]; HSV-1, XQ2 0.63 μM
  CXCL10 mRNA (Fig. S2b): 14561.5 and 17791.3 and 14971.8
  IFNB1 mRNA (Fig. S2b): 91.2373 and 106.205 and 112.809
  IL6 mRNA (Fig. S2b): 98.3879 and 100.916 and 99.3832
[1]; HSV-1, XQ2 1.25 μM
  CXCL10 mRNA (Fig. S2b): 13878.7 and 14634.4 and 14561.7
  IFNB1 mRNA (Fig. S2b): 97.5861 and 86.027 and 97.3512
  IL6 mRNA (Fig. S2b): 83.7674 and 88.7511 and 90.6215
[1]; HSV-1, XQ2 2.5 μM
  CXCL10 mRNA (Fig. S2b): 11116.4 and 12643.3 and 12467.1
  IFNB1 mRNA (Fig. S2b): 73.1655 and 85.1476 and 97.1694
  IL6 mRNA (Fig. S2b): 59.5539 and 58.6936 and 59.7795
[1]; HSV-1, XQ2 5 μM
  CXCL10 mRNA (Fig. S2b): 4443.66 and 5989.75 and 4916.38
  IFNB1 mRNA (Fig. S2b): 58.3528 and 60.5599 and 78.4822
  IL6 mRNA (Fig. S2b): 37.2474 and 41.0154 and 36.4161
[1]; HSV-1, XQ2 10 μM
  CXCL10 mRNA (Fig. S2b): 610.463 and 931.698 and 780.881
  IFNB1 mRNA (Fig. S2b): 20.0242 and 25.5972 and 33.1577
[1]; Mock, XQ2 0.31 μM
  CXCL10 mRNA (Fig. S2b): 0.6255 and 0.7855 and 0.8542
  IFNB1 mRNA (Fig. S2b): 0.7527 and 0.6452 and 0.8722
  IL6 mRNA (Fig. S2b): 0.9875 and 1.125 and 1.458
[1]; Mock, XQ2 0.63 μM
  CXCL10 mRNA (Fig. S2b): 0.4588 and 0.432 and 0.4044
  IFNB1 mRNA (Fig. S2b): 0.713 and 0.5919 and 0.8053
  IL6 mRNA (Fig. S2b): 1.48 and 1.078 and 1.222
[1]; Mock, XQ2 1.25 μM
  CXCL10 mRNA (Fig. S2b): 1.308 and 1.359 and 1.615
  IFNB1 mRNA (Fig. S2b): 0.9026 and 1.107 and 1.382
[1]; Mock, XQ2 2.5 μM
  CXCL10 mRNA (Fig. S2b): 3.137 and 2.991 and 2.833
  IFNB1 mRNA (Fig. S2b): 1.426 and 1.751 and 1.799
  IL6 mRNA (Fig. S2b): 2.387 and 2.459 and 3.439
[1]; Mock, XQ2 5 μM
  CXCL10 mRNA (Fig. S2b): 1.923 and 2.134 and 2.246
  IFNB1 mRNA (Fig. S2b): 1.17 and 1.093 and 1.0788
[1]; Mock, XQ2 10 μM
  CXCL10 mRNA (Fig. S2b): 4.593 and 4.941 and 4.3739
  IFNB1 mRNA (Fig. S2b): 1.523 and 2.285 and 2.284
  IL6 mRNA (Fig. S2b): 4.656 and 4.111 and 3.925
[1]; THP1
  HSV-1-induced IFNB1, CXCL10, IL6 expression: inhibited the expression level of IFNΒ1 and CXCL10, as well as IL6
[1]; THP1, HSV-1, 10 μM
  IFNB1 mRNA, qPCR, Fig. 2b: 17.701 and 20.2819 and 20.0106
[2]; THP1, 10 μM
  poly (I: C)-induced IFNB1 expression: did not affect the expression of IFNΒ1 induced by poly (I: C)
[2]; THP1, Poly(I:C), 10 μM
  IFNB1 mRNA, qPCR, Fig. 2b: 400.477 and 440.107 and 373.524
[3]
  ISD-induced IFNB1 and IL6 expression in PBMCs: markedly suppressed the expression of IFNB1 and IL6; also recorded: significantly inhibit the activation of cGAS induced by ISD
[3]; PBMCs, ISD
  IFNB1 mRNA, qPCR, Fig. 2c: 362.804 and 380.938 and 448.513
  IL6 mRNA, qPCR, Fig. 2c: 261.548 and 423.427 and 399.836
[4]; Cell viability (Fig. S2e), THP1 (48h), XQ2 0.16 μM
  viability at 48 h, 0.16 µM: 87.4%
[4]; Cell viability (Fig. S2e), THP1 (48h), XQ2 0.31 μM
  viability at 48 h, 0.31 µM: 103%
[4]; Cell viability (Fig. S2e), THP1 (48h), XQ2 0.63 μM
  viability at 48 h, 0.63 µM: 94.8%
[4]; Cell viability (Fig. S2e), THP1 (48h), XQ2 1.25 μM
  viability at 48 h, 1.25 µM: 95.7%
[4]; Cell viability (Fig. S2e), THP1 (48h), XQ2 2.5 μM
  viability at 48 h, 2.5 µM: 92.5%
[4]; Cell viability (Fig. S2e), THP1 (48h), XQ2 5 μM
  viability at 48 h, 5 µM: 90.4%
[4]; Cell viability (Fig. S2e), THP1 (48h), XQ2 10 μM
  viability at 48 h, 10 µM: 93.6%
[4]; Cell viability (Fig. S7a), XQ2 312.5 nM
  viability at 48 h, 0.3125 µM: 103%
[4]; Cell viability (Fig. S7a), XQ2 625 nM
  viability at 48 h, 0.625 µM: 94.8%
[4]; Cell viability (Fig. S7a), XQ2 1250 nM
  viability at 48 h, 1.25 µM: 95.7%
[4]; Cell viability (Fig. S7a), XQ2 2500 nM
  viability at 48 h, 2.5 µM: 92.5%
[4]; Cell viability (Fig. S7a), XQ2 5000 nM
  viability at 48 h, 5 µM: 90.4%
[4]; Cell viability (Fig. S7a), XQ2 10000 nM
  viability at 48 h, 10 µM: 93.6%
[4]; Cell viability (Fig. S7a), XQ2 20000 nM
  viability at 48 h, 20 µM: 56.9%
[4]; Cell viability (Fig. S7a), XQ2 40000 nM
  viability at 48 h, 40 µM: 4.01%
[4]; Cell viability (Fig. S7a), XQ2 80000 nM
  viability at 48 h, 80 µM: 6.79%
[4]; Cell viability (Fig. S7a), XQ2 160000 nM
  viability at 48 h, 160 µM: 6.84%
[4]; Cell viability (Fig. S7a), XQ2 320000 nM
  viability at 48 h, 320 µM: 6.36%
[5]; XQ2 0.16 μM
  Cell viability (Fig. S2e): 87.186 and 98.2321
[5]; XQ2 0.31 μM
  Cell viability (Fig. S2e): 93.9161 and 92.7457
[5]; XQ2 0.63 μM
  Cell viability (Fig. S2e): 102.329 and 90.4779
[5]; XQ2 1.25 μM
  Cell viability (Fig. S2e): 94.1356 and 101.451
[5]; XQ2 2.5 μM
  Cell viability (Fig. S2e): 93.4772 and 103.426
[5]; XQ2 5 μM
  Cell viability (Fig. S2e): 89.1612 and 96.4765
[5]; XQ2 10 μM
  Cell viability (Fig. S2e): 102.841 and 97.9395
[5]; read-out: IC50, cell viability (CCK8), Fig. S7a, THP1, 48h
  IC50: 24.3 ± 8.9 µM
[6]
  ISD-induced cell death: markedly suppressed ISD-induced cell death
[7]; 10 μM
  HSV-1 infection of THP1 cells, HSV1(UL5) mRNA: substantially facilitated HSV-1 infection of THP1 cells
[7]; HSV-1(1×104)24h
  HSV-1(UL5) mRNA, qPCR, Fig. 5d: 1.256 and 1.311 and 1.284
[7]; HSV-1(1×104)48h
  HSV-1(UL5) mRNA, qPCR, Fig. 5d: 9.927 and 7.927 and 10.0304
[7]; HSV-1(2×104)24h
  HSV-1(UL5) mRNA, qPCR, Fig. 5d: 4.976 and 4.739 and 4.656
[7]; HSV-1(2×104)48h
  HSV-1(UL5) mRNA, qPCR, Fig. 5d: 18.9511 and 21.7278 and 21.8028
